In brackets after ≈: the same amount, converted by molar mass. Where two headings read alike, the source gives them in different places. One block for each compound: values may come before it.
What was measured:
[1] = Aqueous solubility of crystalline forms of Compound (I); type: physicochemical
Description: However, in the presence of an aqueous medium, the neat crystalline Form N-1 can convert to the crystalline sesquihydrate Form H1.5-2. […] One method to increase the bioavailability of compounds in a suspension is to increase the surface area of the particles in contact with the aqueous medium, which can be achieved by decreasing the particle size. However, reductions in particle size below diameters of approximately one micron requires specialized milling and dispersion techniques to prepare, stabilize, and sterilize the sub-micron suspensions. Desired is an aqueous suspension of Compound (I) in Form N-1 that has sufficient resistance to conversion to the sesquihydrate Form H1.5-2 to allow oral administration.

[2] = Pharmacokinetics of capsules of Form N-1 with two particle sizes; design: species or system dogs; conditions: dog, in vivo, 10 mg/kg, 10 mpk; for bioavailability: oral, compared to IV data, read-out: Absolute Bioavailability; for AUC / Cmax / Tmax: po
Procedure: The microsuspension of Example 7, tablets, and hard gelatin capsules containing the phosphate salt of Compound (I) were dosed orally at 10 mg/kg in dogs pretreated with pentagastrin. The resulting exposures were compared to an absolute bioavailability calculated by comparison to an IV dose in the same animals. Capsules were prepared comprising Compound (I), Form N-1 with two different particle sizes.

[3] = Chemical and physical stability testing of Form N-1; type: physicochemical; conditions: several different temperature and humidity conditions
[4] = Chemical stability of tablets after accelerated storage; type: physicochemical; conditions: control
Procedure: The chemical stability of the 25 mg tablet of Example 9 was evaluated after accelerated storage at various temperatures and humidity conditions for periods up to one month.

[5] = Particle Diameter D90 10 micron
[6] = Particle Diameter D90 70 micron

solubility ([1]; aqueous medium, aqueous buffer, pH 7.4 and room temperature): ~0.25 µg/mL (≈ 0.487 µM) | bioavailability [2, 5]: ~32% | bioavailability [2, 6]: 12% | AUC [2, 5]: 90.2 ± 5.5 µM·h | Cmax [2, 5]: 15 ± 2.7 µM | Tmax [2, 5]: 6 h | AUC [2, 6]: 33.3 ± 8.4 µM·h | Cmax [2, 6]: 6.9 ± 1.1 µM | Tmax [2, 6]: 2 h | chemical and physical stability [3]: suitable chemical and physical stability
SMILES: CCOc1ccn(-c2ccc(F)cc2)c(=O)c1C(=O)Nc1ccc(Oc2ccnc(N)c2Cl)c(F)c1 [Form N-1, N-(4-(2-Amino-3-chloropyridin-4-yloxy)-3-fluorophenyl)-4-ethoxy-1-(4-fluorophenyl)-2-oxo-1,2-dihydropyridine-3-carboxamide]

SMILES: CCOc1ccn(-c2ccc(F)cc2)c(=O)c1C(=O)Nc1ccc(Oc2ccnc(N)c2Cl)c(F)c1 [Form H1.5-2, N-(4-(2-Amino-3-chloropyridin-4-yloxy)-3-fluorophenyl)-4-ethoxy-1-(4-fluorophenyl)-2-oxo-1,2-dihydropyridine-3-carboxamide]
aqueous solubility compared to Form N-1 [1]: lower aqueous solubility compared to Form N-1

Total Impurity [4]: 0.13%
SMILES: CCOc1ccn(-c2ccc(F)cc2)c(=O)c1C(=O)Nc1ccc(Oc2ccnc(N)c2Cl)c(F)c1 [Compound (I), N-(4-(2-Amino-3-chloropyridin-4-yloxy)-3-fluorophenyl)-4-ethoxy-1-(4-fluorophenyl)-2-oxo-1,2-dihydropyridine-3-carboxamide]

Source: patent US9233948B2, “Pharmaceutical compositions comprising N-(4-(2-amino-3-chloropyridin-4-yloxy)-3-fluorophenyl)-4-ethoxy-1-(4-fluorophenyl)-2-oxo-1,2-dihydropyridine-3-carboxamide” (Bristol-Myers Squibb Company, priority 2010, dated 2016)
